Results: patent US20200231638A1, “STABILIZED ANTI-MICROBIAL PEPTIDES” (priority 2015, published 2020)
In brackets after ≈: the same amount, converted by molar mass. Bridge positions count the residues as written; N and C are the ends. Square brackets hold non-standard residues; d marks the D form. Peptide text beside a SMILES is read from it. R8 = C=CCCCCCC[C@@](C)(N)C(=O)O; S5 = C=CCCC[C@](C)(N)C(=O)O; Nle = CCCC[C@H](N)C(=O)O

What was measured:
[1] = tested on: E. coli; format: cell-based, Escherichia coli
Summary of the method: (§1)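 Read-out is visible growth: the MIC is the lowest peptide concentration showing none after 20-24 hours at 37° C. Bacteria in refined (anion-exchanged) Mueller-Hinton broth were seeded at a final 5×10^5 CFU/ml onto water-based peptide serial dilutions.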

[2] = Circular dichroism spectroscopy (α-helicity); format: physicochemical; conditions: for α-helicity by CD in water, absence of TFE: aqueous solution, no TFE; for α-helicity by CD in the presence of TFE: TFE 50% v/v
Description: To determine the helicity of the panel of stapled magainin II analogues, the peptides were dissolved in water using CD spectroscopy in the presence and absence of trifluoroethanol (TFE; 50% v/v), a helix-promoting solvent. […] Levels of helicity ranged from approximately 34% for MagStap 2 to 100% for MagStap 1 and 3, as compared to an idealized α-helical peptide. […] When the helicity in the presence of TFE was measured, most of the stapled analogues were 50-60% helical except for MagStap 3, which retained 100% α-helical content.
Circular Dichroism Spectroscopy:
Compounds were dissolved in an aqueous solution (e.g. 5 mM potassium phosphate solution at pH 7, or distilled H2O, to concentrations of 25-50 μM). Circular dichroism (CD) spectra were obtained on a spectropolarimeter (Aviv) using standard measurement parameters (e.g., temperature, 37° C.; wavelength, 190-260 nm; step resolution, 0.5 nm; speed, 20 nm/sec; accumulations, 10; response, 1 sec; bandwidth, 1 nm; path length, 0.1 cm). The α-helical content of each peptide was calculated by dividing the mean residue ellipticity by the reported value for a model helical decapeptide (see, e.g., Yang et al., Meth Enzymol. 130:208 (1986)).

[3] = tested on: B. cereus; format: cell-based, Bacillus cereus
Summary of the method: as §1

[4] = tested on: S. marcescens; format: cell-based
Description: Antimicrobial Activity Assay:
The following microbroth dilution protocol was adapted to determine the minimum inhibitory concentration (MIC) of each peptide. First, Mueller-Hinton broth (MHB) was passed through an anion exchange column to remove polyanionic species and generate refined MHB. […] Briefly, bacterial cells was grown overnight in refined MHB at 37° C. and then diluted and allowed to grow again for several hours. Serial dilutions of peptide stocks in water (10 μl) were prepared using clear round-bottom polypropylene 96-well plates. Then 90 μl of bacteria in refined MHB was added to give a final inoculum of 5×10^5 CFU/ml. The plates were then covered with porous tape to reduce evaporation, and incubated for 20-24 hours at 37° C. The MIC is the minimum peptide concentration at which no visible growth was observed.

[5] = tested on: S. aureus; format: cell-based, Staphylococcus aureus
Summary of the method: as §1

[6] = tested on: human red blood cells; format: cell-based
Summary of the method: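 Washed human RBCs as 1% (v/v) suspension in phosphate-buffered saline incubated 1 h at 37° C with serially diluted peptides. Hemoglobin release in supernatant measured spectrophotometrically (570 nm), % hemolysis relative to untreated and 1% Triton-X100 controls; MHC defined as concentration giving less than 1% release.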

[7] = tested on: P. aeruginosa; format: cell-based, Pseudomonas aeruginosa
Summary of the method: as §1

Row | SMILES | MIC E. coli [1] | α-helicity by CD in water, absence of TFE [2] | MIC B. cereus [3] | MIC S. marcescens [4] | α-helicity by CD in the presence of TFE [2] | MIC S. aureus [5] | hemolytic activity (in words) [6] | MIC P. aeruginosa [7]
1 | CCCC[C@H](NC(=O)[C@@H](NC(=O)[C@H](CCC(=O)O)NC(=O)[C@H](C)NC(=O)[C@@H](NC(=O)[C@H](Cc1ccccc1)NC(=O)[C@H](C)NC(=O)[C@]1(C)CCCC=CCCCCCC[C@@](C)(NC(=O)[C@H](CC(C)C)NC(=O)[C@H](Cc2ccccc2)NC(=O)[C@H](CCCCN)NC(=O)CNC(=O)[C@@H](NC(=O)CN)[C@@H](C)CC)C(=O)N[C@@H](C)C(=O)N[C@@H](C)C(=O)N[C@@H](CCCCN)C(=O)N[C@@H](CCCCN)C(=O)N[C@@H](Cc2ccccc2)C(=O)N[C@@H](C)C(=O)N1)C(C)C)[C@@H](C)CC)C(=O)N[C@@H](CC(N)=O)C(=O)N[C@@H](CO)C(N)=O [MagStap 1] (H-GIGKFL[R8]AAKKFA[S5]AFVAEI[Nle]NS-NH2; staple 7-14; N-terminus assumed) | 12.5 µg/mL (≈ 5.03 µM) | 100% | 12.5 µg/mL (≈ 5.03 µM) | >50 µg/mL |  |  |  | 
2 | CCCC[C@H](NC(=O)[C@@H](NC(=O)[C@H](CCC(=O)O)NC(=O)[C@H](C)NC(=O)[C@@H](NC(=O)[C@H](Cc1ccccc1)NC(=O)[C@]1(C)CCCC=CCCCCCC[C@@](C)(NC(=O)[C@H](Cc2c[nH]cn2)NC(=O)[C@H](CC(C)C)NC(=O)[C@H](Cc2ccccc2)NC(=O)[C@H](CCCCN)NC(=O)CNC(=O)[C@@H](NC(=O)CN)[C@@H](C)CC)C(=O)N[C@@H](C)C(=O)N[C@@H](CCCCN)C(=O)N[C@@H](CCCCN)C(=O)N[C@@H](Cc2ccccc2)C(=O)N[C@@H](C)C(=O)N[C@@H](CCCCN)C(=O)N1)C(C)C)[C@@H](C)CC)C(=O)N[C@@H](CC(N)=O)C(=O)N[C@@H](CO)C(N)=O [MagStap 2] (H-GIGKFLH[R8]AKKFAK[S5]FVAEI[Nle]NS-NH2; staple 8-15; N-terminus assumed) | 3.1 µg/mL (≈ 1.19 µM) | approximately 34% | 3.1 µg/mL (≈ 1.19 µM) | >50 µg/mL |  |  |  | 
3 | CCCC[C@H](NC(=O)[C@@H](NC(=O)[C@H](CCC(=O)O)NC(=O)[C@H](C)NC(=O)[C@@H](NC(=O)[C@]1(C)CCCC=CCCCCCC[C@@](C)(NC(=O)[C@H](C)NC(=O)[C@H](Cc2c[nH]cn2)NC(=O)[C@H](CC(C)C)NC(=O)[C@H](Cc2ccccc2)NC(=O)[C@H](CCCCN)NC(=O)CNC(=O)[C@@H](NC(=O)CN)[C@@H](C)CC)C(=O)N[C@@H](CCCCN)C(=O)N[C@@H](CCCCN)C(=O)N[C@@H](Cc2ccccc2)C(=O)N[C@@H](C)C(=O)N[C@@H](CCCCN)C(=O)N[C@@H](C)C(=O)N1)C(C)C)[C@@H](C)CC)C(=O)N[C@@H](CC(N)=O)C(=O)N[C@@H](CO)C(N)=O [MagStap 3] (H-GIGKFLHA[R8]KKFAKA[S5]VAEI[Nle]NS-NH2; staple 9-16; N-terminus assumed) | 3.1 µg/mL (≈ 1.22 µM) | 100% | 6.2 µg/mL (≈ 2.45 µM) | >50 µg/mL | 100% |  |  | 
4 | CC[C@H](C)[C@H](NC(=O)CN)C(=O)NCC(=O)N[C@@H](CCCCN)C(=O)N[C@@H](Cc1ccccc1)C(=O)N[C@@H](CC(C)C)C(=O)N[C@@H](CCCCN)C(=O)N[C@@H](CCCCN)C(=O)N[C@@H](C)C(=O)N[C@@H](CCCCN)C(=O)N[C@]1(C)CCCCCCC=CCCC[C@@](C)(C(=O)N[C@H](C(=O)N[C@@H](CC(C)C)C(=O)N[C@@H](CCCCN)C(=O)N[C@@H](CCCCN)C(N)=O)[C@@H](C)CC)NC(=O)[C@H](C(C)C)NC(=O)[C@H](Cc2ccccc2)NC(=O)[C@H](C)NC(=O)[C@H](CCCCN)NC(=O)CNC(=O)[C@H](Cc2ccccc2)NC1=O [PexStap 5] (H-GIGKFLKKAK[R8]FGKAFV[S5]ILKK-NH2; staple 11-18; N-terminus assumed) | 1.6 µg/mL (≈ 0.637 µM) |  | 1.6 µg/mL (≈ 0.637 µM) | >50 µg/mL | around 83% | 3.1 µg/mL (≈ 1.23 µM) | higher levels of hemolytic activity when compared to PexStap2 and PexStap6 | 1.6 µg/mL (≈ 0.637 µM)
